# Reference: US7169789B2 (Kirin Beer Kabushiki Kaisha, priority 1999, dated 2007)
# Tests used:
# [1] = tested on: A375 human melanoma cells; assay: Karyomorphosis test; assay type: cell-based; conditions: test compound 10 μM and 1 μM, 48 hr, nuclei stained with propidium iodide
# Protocol: A375 human melanoma cells (2×10^4) (obtained from Japanese Foundation for Cancer Research) were incolulated on a culture slide (manufactured by Falcon) and were cultured at 37° C. After the elapse of 5 hr from the initiation of the cultivation, the test compound was added to 10 μM and 1 μM, and the cultivation was continued for additional 48 hr. After the fixation of cells, 50 μg/ml propidium iodide solution containing ribonuclease (200 μg/ml) was added to stain nuclei. The stained nuclei were observed under a fluorescent microscope to analyze the nuclei for abnormality of karyomorphosis.
# [2] = biological target: T1, human KDR (Homo sapiens, UniProt P35968); assay: Inhibitory activity against KDR phosphorylation by ELISA; assay type: cell-based; conditions: NIH 3T3 cells transfected with human KDR, VEGF 100 ng/ml
# T1 construct: expressed in transfected cells; host or cells: NIH 3T3 cells (Sawano A et al., Cell Growth & Differentiation 7, 213-221 (1996))
# [3] = tested on: activation of MAPK within vascular endothelial cells induced by VEGF stimulation; assay: Inhibitory activity against activation of MAPK within vascular endothelial cells induced by VEGF stimulation; assay type: cell-based; conditions: Endothelial cell; human funicular venous vascular endothelial cells, VEGF 50 ng/ml, phosphorylated MAPK by immunoblotting
# Protocol: Measurement of Inhibitory Activity Against Activation of MAPK Within Vascular Endothelial Cells Induced by VEGF Stimulation
# Human funicular venous vascular endothelial cells (purchased from Chronetics) were cultured in an EGM-2 medium (purchased from Chronetics) within an incubator containing 5% carbon dioxide until 50 to 70% confluent, and the culture was inoculated into wells, containing the same medium, in a 96-well flat-bottom plate in an amount of 1.5×10^5 per well. After cultivation at 37° C. overnight, the medium was replaced by an EBM-2 medium containing 0.5% fetal calf serum (purchased from Chronetics), followed by cultivation for 24 hr. A solution of the test compound in dimethyl sulfoxide was added to each well, and the cultivation was continued at 37° C. for additional one hr. A human recombinant vascular endothelial growth factor (hereinafter abbreviated to “VEGF”) was added to a final concentration of 50 ng/ml, and the stimulation of cells was carried out at 37° C. for 8 min. The medium was removed, the cells were washed with phosphate buffered saline (pH 7.4), and 10 μl of a solubilization buffer (Tris buffered saline (pH 7.4) containing 1% Triton X100, 2 mM sodium orthovanadylate, and 1 mM disodium ethylenediaminetetraacetate) was then added thereto. The mixture was shaken at 4° C. for one hr to solubilize the cells. An equal amount of Tris buffered saline containing 1% sodium laurylsulfate was added to and thoroughly mixed with the solution. This solution (2 μl) was adsorbed on a PVDF filter by dot blotting, and this filter was subjected to immunoblotting with anti-tyrosine phosphorylated MAPK antibody (purchased from Daiichi Pure Chemicals).
# The level of phosphorylated MAPK was quantitatively determined with a densitometer, and the percentage phosphorylated MAPK in the presence of the test compound was determined by presuming the level of phosphorylated MAPK with the addition of VEGF in the absence of the test compound to be 100% and the level of phosphorylated MAPK in the absence of the test compound and VEGF to be 0%. The test compound concentration (IC50) necessary for inhibiting 50% of the activation of MAPK was calculated based on the percentage of phosphorylated MAPK.
# [4] = tested on: Human glioma cells GL07; assay: Antitumor effect on human glioma cells (GL07) transplanted into nude mice; assay type: in vivo; conditions: Mus musculus, Glioma cell, 216 h, GL07, oral, 20 mg/kg once a day for 9 days, read-out: TGIR, % (tumor growth inhibition rate)
# Procedure, shortened: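 GL07 xenografts in nude mice, grouped (n=4) at ~100 mm^3 tumor volume. Test compound 20 mg/kg p.o. or i.p. once daily for 9 days; vehicle controls. TGIR = (1−Tx/Cx)×100 from tumor volumes normalized to day-of-start volume = 1.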
# T1 sequence (P35968 20-1356): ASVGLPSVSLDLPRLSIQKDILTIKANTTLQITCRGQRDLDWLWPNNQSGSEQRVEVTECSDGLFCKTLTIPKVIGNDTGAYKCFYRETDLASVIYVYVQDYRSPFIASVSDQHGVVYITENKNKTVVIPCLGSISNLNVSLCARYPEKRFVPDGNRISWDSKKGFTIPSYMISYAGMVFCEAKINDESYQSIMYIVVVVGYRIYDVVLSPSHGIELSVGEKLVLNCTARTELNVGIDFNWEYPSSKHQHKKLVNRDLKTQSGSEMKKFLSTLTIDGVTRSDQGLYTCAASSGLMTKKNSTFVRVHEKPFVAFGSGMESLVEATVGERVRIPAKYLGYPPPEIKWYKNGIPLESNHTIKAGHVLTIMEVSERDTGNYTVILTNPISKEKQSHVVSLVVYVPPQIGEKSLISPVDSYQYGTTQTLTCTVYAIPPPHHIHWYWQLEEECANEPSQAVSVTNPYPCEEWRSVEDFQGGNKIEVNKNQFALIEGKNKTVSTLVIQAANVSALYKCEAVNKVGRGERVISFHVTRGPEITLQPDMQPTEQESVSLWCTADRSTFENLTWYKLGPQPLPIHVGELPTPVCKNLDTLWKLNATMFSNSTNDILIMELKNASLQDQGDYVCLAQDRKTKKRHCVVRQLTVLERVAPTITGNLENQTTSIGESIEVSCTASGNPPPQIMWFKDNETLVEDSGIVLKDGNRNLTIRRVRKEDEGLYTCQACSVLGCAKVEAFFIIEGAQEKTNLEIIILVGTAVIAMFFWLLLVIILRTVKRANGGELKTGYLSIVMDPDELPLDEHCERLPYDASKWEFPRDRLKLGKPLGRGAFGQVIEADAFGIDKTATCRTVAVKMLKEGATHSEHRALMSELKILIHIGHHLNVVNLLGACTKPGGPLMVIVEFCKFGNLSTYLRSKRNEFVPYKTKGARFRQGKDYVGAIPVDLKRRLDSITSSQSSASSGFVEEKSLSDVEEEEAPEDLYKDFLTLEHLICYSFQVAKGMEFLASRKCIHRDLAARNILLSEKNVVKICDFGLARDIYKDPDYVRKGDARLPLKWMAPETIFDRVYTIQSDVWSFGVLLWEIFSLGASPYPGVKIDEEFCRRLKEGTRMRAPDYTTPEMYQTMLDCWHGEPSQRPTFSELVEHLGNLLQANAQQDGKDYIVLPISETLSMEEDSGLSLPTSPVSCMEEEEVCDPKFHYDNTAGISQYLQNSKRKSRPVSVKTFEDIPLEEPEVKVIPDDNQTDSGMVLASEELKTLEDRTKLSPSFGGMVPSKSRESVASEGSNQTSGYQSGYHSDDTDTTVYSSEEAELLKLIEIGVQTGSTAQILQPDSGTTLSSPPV
Structure (SMILES),Change in morphosis [1],IC50 [2] [nM],IC50 [3] [nM],inhibition in vivo at 20 mg/kg [4] [%]
"COc1cc2nccc(Oc3ccc(NC(=O)Nc4ccc(Br)c(C)n4)c(Cl)c3)c2cc1OC [Example 15, N-(5-Bromo-6-methyl-2-pyridyl)-N′-{2-chloro-4-[(6,7-dimethoxy-4-quinolyl)oxy]phenyl}urea]",(−) (the change in karyomorphosis of cells did not take place at 10 μM),–,–,–
"CCCNC(=O)Nc1cc(C)c(Oc2ccnc3cc(OC)c(OC)cc23)cc1C [Example 38, N-{4-[(6,7-Dimethoxy-4-quinolyl)oxy]-2,5-dimethylphenyl}-N′-propylurea]",(−) (the change in karyomorphosis of cells did not take place at 10 μM),–,–,–
"COc1cc2nccc(Oc3cc(C)c(NC(=O)Nc4ccc(Cl)cc4C)cc3C)c2cc1OC [Example 39, N-(4-chloro-2-methylphenyl)-N′-{4-[(6,7-dimethoxy-4-quinolyl)oxy]-2,5-dimethylphenyl}urea]",(−) (the change in karyomorphosis of cells did not take place at 10 μM),–,–,–
"COc1cc2nccc(Oc3cc(C)c(NC(=O)Nc4ccc(Br)c(C)n4)cc3C)c2cc1OC [Example 44, N-(5-Bromo-6-methyl-2-pyridyl)-N′-{4-[(6,7-dimethoxy-4-quinolyl)oxy]-2,5-dimethylphenyl}urea]",(−) (the change in karyomorphosis of cells did not take place at 10 μM),–,–,–
"COc1ccccc1NC(=O)Nc1ccc(Oc2ccnc3cc(OCc4ccccc4)c(OC)cc23)c(C)c1C [Example 60, N-(4-{[7-(Benzyloxy)-6-methoxy-4-quinolyl]oxy}-2,3-dimethylphenyl)-N′-(2-methoxyphenyl)-urea]",(−) (the change in karyomorphosis of cells did not take place at 10 μM),–,–,–
"COc1cc2ncnc(Oc3ccc(NC(=O)Nc4ccc(F)cc4F)c(Cl)c3)c2cc1OC [Example 61, N-{2-Chloro-4-[(6,7-dimethoxy-4-quinazolinyl)oxy]phenyl}-N′-(2,4-difluorophenyl)urea]",(−) (the change in karyomorphosis of cells did not take place at 10 μM),–,–,–
"COc1cc2ncnc(Oc3ccc(NC(=O)Nc4ccc(F)cc4F)cc3C)c2cc1OC [Example 99, N-(2,4-Difluorophenyl)-N′-{4-[(6,7-dimethoxy-4-quinazolinyl)oxy]-3-methylpenyl}urea]",–,25,8.8,33
"COc1cc2ncnc(Oc3ccc(NC(=O)Nc4ccc(F)cc4)cc3C)c2cc1OC [Example 100, N-{4-[(6,7-Dimethoxy-4-quinazolinyl)oxy)-3-methylphenyl}-N′-(4-fluorophenyl)urea]",–,13,5.2,36
"CCCNC(=O)Nc1ccc(Oc2ncnc3cc(OC)c(OC)cc23)cc1C [Example 102, N-{4-[(6,7-Dimethoxy-4-quinazolinyl)oxy]-2-methylphenyl}-N′-propylurea]",–,105,150,24
"CCCCNC(=O)Nc1ccc(Oc2ncnc3cc(OC)c(OC)cc23)cc1C [Example 103, N-Butyl-N′-{4-[(6,7-dimethoxy-4-quinazolinyl)oxy]-2-methylphenyl}urea]",–,78,53,23
"COc1cc2ncnc(Oc3ccc(NC(=O)Nc4ccc(F)cc4F)c(C)c3)c2cc1OC [Example 104, N-(2,4-Difluorophenyl)-N′-{4-[(6,7-dimethoxy-4-quinazolinyl)oxy]-2-methylphenyl}urea]",–,3.9,5.3,22
"COc1cc2ncnc(Oc3ccc(NC(=O)Nc4ccc(F)cc4)c(C)c3)c2cc1OC [Example 105, N-{4-[(6,7-Dimethoxy-4-quinazolinyl)oxy]-2-methylphenyl}-N′-(4-fluorophenyl)urea]",–,2,2.3,20
"CCCNC(=O)Nc1ccc(Oc2ncnc3cc(OC)c(OC)cc23)cc1[N+](=O)[O-] [Example 107, N-{4-[(6,7-Dimethoxy-4-quinazolinyl)oxy]-2-nitrophenyl}-N′-propylurea]",–,11,10.2,49
